Laboratory results from PubChem BioAssay (NCI).
Where “and” joins values, the source holds several entries; their conditions need not be identical. Equal values may be shown once.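 Assay format: 96-well plates, 48-hour exposure. At the GI50, growth is halved. TGI: concentration producing complete growth inhibition.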

How the values were obtained:
Experiment in all cases: DTP human tumour cell line panel, 48 h
HS 578T breast = system: HS 578T breast
TK-10 renal = system: TK-10 renal
SR leukemia = system: SR leukemia
HOP-62 NSCLC = system: HOP-62 NSCLC
CAKI-1 renal = system: CAKI-1 renal
SW-620 colon = system: SW-620 colon
COLO 205 colon = system: COLO 205 colon
SNB-75 CNS = system: SNB-75 CNS
UACC-257 melanoma = system: UACC-257 melanoma
OVCAR-5 ovarian = system: OVCAR-5 ovarian

SMILES	GI50 (HS 578T breast)	TGI (HS 578T breast)	GI50 (TK-10 renal)	TGI (TK-10 renal)	GI50 (SR leukemia)	TGI (SR leukemia)	GI50 (HOP-62 NSCLC)	TGI (HOP-62 NSCLC)	GI50 (CAKI-1 renal)	TGI (CAKI-1 renal)	GI50 (SW-620 colon)	TGI (SW-620 colon)	GI50 (COLO 205 colon)	TGI (COLO 205 colon)	GI50 (SNB-75 CNS)	TGI (SNB-75 CNS)	GI50 (UACC-257 melanoma)	TGI (UACC-257 melanoma)	GI50 (OVCAR-5 ovarian)	TGI (OVCAR-5 ovarian)
COc1ccc(/C=C/C(C)=N/OCC(=O)Nc2ccc(Cl)cc2)cc1	5.85 µM	78.5 µM	7.74 µM	38.9 µM	2.24 µM	10.6 µM	5.06 µM	27.5 µM	2.29 µM	27 µM	3.13 µM	20.1 µM	3.64 µM	14 µM	3.21 µM	32.6 µM	3.4 µM	22.2 µM	5.45 µM	> 77.3 µM
CNCc1ccc(-c2[nH]c3cc(F)cc4c3c2CCNC4=O)cc1	19.5 µM	67.9 µM	29.2 µM	72.7 µM	9.51 µM	44 µM	14.9 µM	43.4 µM	16.7 µM	60 µM	16.1 µM	60.4 µM	11.7 µM	26.4 µM	9.49 µM	27.3 µM	17 µM	33.2 µM	19.1 µM	55.5 µM
Cc1ccc(S(=O)(=O)N2CCC(C(=O)O)(c3ccccc3)CC2)cc1	–	> 100 µM	–	> 100 µM	–	> 100 µM	–	> 100 µM	–	> 100 µM	–	> 100 µM	–	> 100 µM	–	> 100 µM	–	> 100 µM	–	> 100 µM
COc1ccc(/C(C)=C(\c2ccc(Cl)cc2)c2ccc(OCCN3CCCCCC3)cc2)cc1F	2.69 µM	6.51 µM	4.28 µM	14 µM	2.26 µM	12.3 µM	3.33 µM	6.72 µM	3.37 µM	7.7 µM	2.14 µM	4.81 µM	1.62 µM	7.47 µM	4.16 µM	13.3 µM	3.4 µM	7.87 µM	2.95 µM	8.18 µM
COc1c(O)c2c3c(c1OC)-c1ccccc1CC3N(S(=O)(=O)c1ccc(C)cc1)CC2 (stereo unspecified)	1.2 µM	4.03 µM	7.96 µM	> 50 µM	1.36 µM	7.09 µM	2.77 µM	> 50 µM	2.12 µM	> 50 µM	1.6 µM	> 50 µM	19.2 µM	> 50 µM	0.933 µM	3.92 µM	1.8 µM	> 50 µM	2.69 µM	> 50 µM
N#CCC1(n2cc(-c3ncnc4[nH]ccc34)cn2)CN(C2CCN(C(=O)c3ccnc(C(F)(F)F)c3F)CC2)C1	28.1 µM	> 100 µM	55.3 µM	> 100 µM	51.4 µM	> 100 µM	> 100 µM	> 100 µM	–	–	83.5 µM	> 100 µM	57.8 µM	> 100 µM	25.7 µM	> 100 µM	> 100 µM	> 100 µM	> 100 µM	> 100 µM
O=NN(CCCl)C(=O)NC1CCCCC1	–	104 µM	28 µM and 87.4 µM	86.8 µM and 152 µM and 177 µM	9.14 µM	–	51.9 µM and 113 µM	154 µM and 213 µM	22.9 µM and 30.5 µM and 60.5 µM	41.7 µM and 101 µM and 142 µM	18.3 µM and 44.1 µM	45.9 µM and 108 µM and 98.7 µM	20.3 µM and 57.1 µM	36.7 µM and 102 µM and 87.8 µM	23.3 µM and 42.1 µM	64.5 µM and 112 µM and 108 µM	23.7 µM	73.8 µM and 127 µM and 82.4 µM	247 µM	168 µM and 363 µM
CCN1CCN(c2nc(NNC(=O)c3ccccc3)nc(N3CCN(C(c4ccccc4)c4ccccc4)CC3)n2)CC1	3.3 µM	22.3 µM	3.31 µM	11.4 µM	1.78 µM	4.69 µM	12.7 µM	31.8 µM	2.21 µM	5.76 µM	2.3 µM	5.88 µM	1.9 µM	3.83 µM	3.96 µM	18.1 µM	1.9 µM	4.25 µM	6.03 µM	21.4 µM
Cc1nc2c(Br)cc(Br)cc2c(=O)n1-c1ccccc1NC1OCC(O)C(O)C1O (stereo unspecified)	–	> 100 µM	–	> 100 µM	13.2 µM and 6 µM	41 µM and 13.6 µM	> 100 µM and 10.3 µM	> 100 µM and 35.7 µM	–	> 100 µM	–	> 100 µM	–	34.2 µM and > 100 µM	–	> 100 µM and 53.2 µM	–	> 100 µM and 99.3 µM	–	> 100 µM
CNCc1cccc2c1OCCOCCOCCC(C)S(=O)(=O)c1ccc(cc1)-c1cnc(N)c(n1)C(=O)N2 (stereo unspecified)	0.602 µM	3.09 µM	1.37 µM	8.25 µM	0.0861 µM	4.71 µM	1.14 µM	4.82 µM	0.365 µM	2.22 µM	2.13 µM	10.7 µM	0.564 µM	5.25 µM	0.119 µM	1.59 µM	1.91 µM	4.55 µM	3.82 µM	11.4 µM
OCC#Cc1ccccc1C#Cc1ccc(C#Cc2ccccc2)cc1	31 µM	> 100 µM	13 µM	32.9 µM	11.5 µM	44.8 µM	–	–	44.5 µM	> 100 µM	17.2 µM	44.4 µM	24.9 µM	70.7 µM	32.4 µM	> 100 µM	27.6 µM	69.8 µM	17.7 µM	34.9 µM
Clc1ccc2c(NCCCN3CCN(c4nc(N5CCOCC5)nc5ccccc45)CC3)ccnc2c1	1.5 µM	3.72 µM	2.04 µM	4.56 µM	1.35 µM	4.57 µM	–	–	–	–	1.62 µM	3.5 µM	1.66 µM	3.32 µM	1.85 µM	3.3 µM	1.77 µM	3.42 µM	2.5 µM	6.34 µM
COc1cc(N(CCC#N)CCC#N)ccc1/C(N=Nc1ccc(C(=O)O)cc1)=N/NC(=O)c1cc(Br)ccc1O	77.3 µg/mL	> 150 µg/mL	–	–	85.4 µg/mL	> 150 µg/mL	–	–	130 µg/mL	> 150 µg/mL	> 150 µg/mL	> 150 µg/mL	43.3 µg/mL	140 µg/mL	57.2 µg/mL	130 µg/mL	> 150 µg/mL	> 150 µg/mL	–	–
